Data: patent publication US11147884B2, “Inhibitors of NHE-mediated antiport” (Ardelyx, Inc., priority 2017, dated 2021)

Assays:
[1] = molecular target: T1, human NHE3 (Homo sapiens, UniProt P48764); assay: Cell-based assay of NHE-3 activity (pre-incubation inhibition), human; settings: human Preincuba assay; PS120 fibroblasts expressing human NHE3 and NHERF2
T1 construct: host or cells: PS120 fibroblasts
T1 sequence (P48764 26-834): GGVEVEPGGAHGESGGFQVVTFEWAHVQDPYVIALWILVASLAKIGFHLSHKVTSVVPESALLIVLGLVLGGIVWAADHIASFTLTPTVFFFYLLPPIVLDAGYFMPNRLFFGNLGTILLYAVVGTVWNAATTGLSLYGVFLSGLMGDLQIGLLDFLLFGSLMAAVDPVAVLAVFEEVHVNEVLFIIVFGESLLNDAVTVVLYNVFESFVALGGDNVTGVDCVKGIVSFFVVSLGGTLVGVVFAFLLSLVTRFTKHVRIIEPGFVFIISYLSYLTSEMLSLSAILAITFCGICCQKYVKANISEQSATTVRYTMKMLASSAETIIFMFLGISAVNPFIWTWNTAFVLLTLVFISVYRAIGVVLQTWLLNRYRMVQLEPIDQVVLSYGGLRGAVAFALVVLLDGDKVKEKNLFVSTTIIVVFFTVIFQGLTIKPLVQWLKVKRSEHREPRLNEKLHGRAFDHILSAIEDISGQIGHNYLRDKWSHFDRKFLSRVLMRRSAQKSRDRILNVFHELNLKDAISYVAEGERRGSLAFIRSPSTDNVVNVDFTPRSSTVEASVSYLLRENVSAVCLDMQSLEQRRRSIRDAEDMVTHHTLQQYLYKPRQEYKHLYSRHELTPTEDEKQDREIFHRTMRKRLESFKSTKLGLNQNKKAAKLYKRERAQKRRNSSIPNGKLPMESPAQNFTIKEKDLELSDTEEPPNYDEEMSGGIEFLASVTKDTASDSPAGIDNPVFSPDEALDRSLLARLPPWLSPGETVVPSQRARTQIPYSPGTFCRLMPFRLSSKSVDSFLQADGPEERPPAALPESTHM
T1 sequence (Q99653 2-195 partner limits assumed): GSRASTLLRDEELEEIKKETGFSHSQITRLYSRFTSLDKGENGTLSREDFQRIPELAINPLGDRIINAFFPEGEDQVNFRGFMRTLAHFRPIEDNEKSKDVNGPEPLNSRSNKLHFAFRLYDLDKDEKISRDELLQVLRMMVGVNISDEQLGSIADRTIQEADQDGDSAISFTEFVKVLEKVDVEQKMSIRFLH
Method: Rat and human NHE-3-mediated Na^+-dependent H^+ antiport was measured using a modification of the pH sensitive dye method originally reported by Paradiso (Proc. Natl. Acad. Sci. USA. (1984) 81(23): 7436-7440). PS120 fibroblasts stably expressing human NHE3 and NHERF2 were obtained from Mark Donowitz (Baltimore, Md.). Opossum kidney (OK) cells were obtained from the ATCC and propagated per their instructions. The rat NHE-3 gene (GenBank M85300) was introduced into OK cells via electroporation, and cells were seeded into 96 well plates and grown overnight. Medium was aspirated from the wells then incubated for 30 min at 37° C. with NH4Cl-HEPES buffer (20 mM […], 80 mM NaCl, 50 mM HEPES, 5 mM KCl, 2 mM CaCl2, 1 mM MgCl2, pH 7.4) containing 5 μM BCECF-AM. Cells were washed once with Ammonium free, Na^t-free HEPES (100 mM choline, 50 mM HEPES, 10 mM glucose, 5 mM KCl, 2 mM CaCl2), 1 mM MgCl2, pH 7.4) and incubated in the same buffer for 10 minutes at room temperature to lower intracellular pH with 0-30 μM test compound. […] Changes in intracellular pH were monitored using a FLIPR Tetra®® (Molecular Devices, Sunnyvale, Calif.) by excitation at λex 439 to 505 nm, and measuring BCECF fluorescence at λem 538 nm. The initial rate of the fluorescence ratio change was used as a measure of NHE-mediated Na^+/H^+ activity, and reported as the change in fluorescence ratio per minute.

[2] = molecular target: T1, human NHE3; assay: Cell-based assay of NHE-3 activity (persistent inhibition after washout), human; settings: human Persistence assay; after 60 min incubation and washout
Method: The ability of compounds to inhibit human and rat NHE-3-mediated Na^+-dependent H^+ antiport after application and washout was measured using a modification of the pH sensitive dye method described above. PS120 fibroblasts stably expressing human NHE3 and NHERF2 were obtained from Mark Donowitz (Baltimore, Md.). Opossum kidney (OK) cells were obtained from the ATCC and propagated per their instructions. The rat NHE-3 gene was introduced into OK cells via electroporation, and cells were seeded into 96 well plates and grown overnight. Medium was aspirated from the wells, cells were washed once with NaCl-HEPES buffer (100 mM NaCl, 50 mM HEPES, 10 mM glucose, 5 mM KCl, 2 mM CaCl2, 1 mM MgCl2, pH 7.4), then overlayed with NaCl-HEPES buffer containing 0-30 μM test compound. After a 60 min incubation at room temperature, the test drug containing buffer was aspirated from the cells. Following aspiration, cells were washed once with NaCl-HEPES buffer without drug, then incubated for 30 min at 37° C. with NH4Cl-HEPES buffer (20 mM NH4Cl, 80 mM NaCl, 50 mM HEPES. 5 mM KCl, 2 mM CaCl2), 1 mM MgCl2, pH 7.4) containing 5 μM BCECF-AM. Cells were washed once with Ammonium free, Na^+-free HEPES (100 mM choline, 50 mM HEPES, 10 mM glucose. 5 mM KCl, 2 mM CaCl2), 1 mM MgCl2, pH 7.4) and incubated in the same buffer for 10 minutes at room temperature to lower intracellular pH. NHE-3-mediated recovery of neutral intracellular pH was initiated (10 min after compound washout) by addition of Na-HEPES buffer. […] Changes in intracellular pH were monitored using a FLIPR Tetra® (Molecular Devices, Sunnyvale, Calif.) by excitation at λex 439 to 505 nm, and measuring BCECF fluorescence at λem 538 nm. The initial rate of the fluorescence ratio change was used as a measure of NHE-mediated Na^+/H^+ activity, and reported as the change in fluorescence ratio per minute.

[3] = human absorption data, from Ertl et al., J. Med. Chem., 2000; cited from earlier work

Structure (SMILES)	% inhibition [1]	IC50 [1] [nM]	% inhibition [2]	IC50 [2] [nM]	$ FA [3]
CN1Cc2c(Cl)cc(Cl)cc2[C@H](c2cccc(S(=O)(=O)N3CC[C@H](OCCOCCNC(=O)NCCCCNC(=O)NCCOCCO[C@H]4CCN(S(=O)(=O)c5cccc([C@@H]6CN(C)Cc7c(Cl)cc(Cl)cc76)c5)C4)C3)c2)C1 [Example 50]	C (>70%)	< 100	C (>70%)	100 to 1000	
CC(C)[C@H](COCCOCCNC(=O)NCCCCNC(=O)NCCOCCOC[C@H](NS(=O)(=O)c1cccc([C@@H]2CN(C)Cc3c(Cl)cc(Cl)cc32)c1)C(C)C)NS(=O)(=O)c1cccc([C@@H]2CN(C)Cc3c(Cl)cc(Cl)cc32)c1 [Example 51]	A (NHE3 <40%)	> 1000	A (NHE3 <40%)	> 1000	
CN1Cc2c(Cl)cc(Cl)cc2[C@H](c2cccc(S(=O)(=O)N3CC[C@@H](OCCOCCNC(=O)NCCCCNC(=O)NCCOCCO[C@@H]4CCN(S(=O)(=O)c5cccc([C@@H]6CN(C)Cc7c(Cl)cc(Cl)cc76)c5)C4)C3)c2)C1 [Example 49, 1-(2-(2-(((R)-1-((3-((S)-6,8-dichloro-2-methyl-1,2,3,4-tetrahydroisoquinolin-4-yl)phenyl)sulfonyl)pyrrolidin-3-yl)oxy)ethoxy)ethyl)-3-(4-(3-(2-(2-(((R)-1-((3-((S)-6,8-dichloro-2-methyl-1,2,3,4-tetrahydroisoquinolin-4-yl)phenyl)sulfonyl)pyrrolidin-3-yl)oxy)ethoxy)ethyl)ureido)buty)urea]	C (>70%)	< 100	C (>70%)	100 to 1000	
Cc1ccccc1N1C(=O)c2cc(S(N)(=O)=O)c(Cl)cc2NC1C (stereo not shown) [metolazone]					64
CN1Cc2c(Cl)cc(Cl)cc2[C@H](c2cccc(S(=O)(=O)N3CCC(OCCOCCNC(=O)NCCCCNC(=O)NCCOCCOC4CCN(S(=O)(=O)c5cccc([C@@H]6CN(C)Cc7c(Cl)cc(Cl)cc76)c5)CC4)CC3)c2)C1 [Example 48]	C (>70%)	< 100	C (>70%)	100 to 1000	
CC(C)NCC(O)COc1cccc2[nH]ccc12 (stereo not shown) [pindolol]					92
O=C(O)c1cc(/N=N/c2ccc(S(=O)(=O)Nc3ccccn3)cc2)ccc1O [sulfasalazine]					12
O=C(O)P(=O)(O)O [foscarnet]					17
OC[C@@H](O)[C@@H](O)[C@H](O)[C@H](O)CO [mannitol]					26
CN1Cc2c(Cl)cc(Cl)cc2C(c2cccc(S(=O)(=O)N[C@@H]3CCN(CCOCCNC(=O)NCCCCNC(=O)NCCOCCN4CC[C@@H](NS(=O)(=O)c5cccc(C6CN(C)Cc7c(Cl)cc(Cl)cc76)c5)C4)C3)c2)C1 (stereo partly drawn) [Example 24, N,N′-[(3R,3′R)-(7,14-Dioxo-3,18-dioxa-6,8,13,15-tetraazaicosane-1,20-diyl)bis(pyrrolidine-1,3-diyl)]bis[3-(6,8-dichloro-2-methyl-1,2,3,4-tetrahydroisoquinolin-4-yl)benzenesulfonamide]]	C (>70%)	< 100	C (>70%)	< 100	
CN1Cc2c(Cl)cc(Cl)cc2[C@H](c2cccc(S(=O)(=O)NC(C)(C)COCCOCCNC(=O)NCCCCNC(=O)NCCOCCOCC(C)(C)NS(=O)(=O)c3cccc([C@@H]4CN(C)Cc5c(Cl)cc(Cl)cc54)c3)c2)C1 [Example 47, 3-(2-[2-[2-([3-[(4S)-6,8-dichloro-2-methyl-1,2,3,4-tetrahydroisoquinolin-4-yl]benzene]sulfonamido)-2-methylpropoxy]ethoxy]ethyl)-1-(4-[[(2-[2-[2-([3-[(4S)-6,8-dichloro-2-methyl-1,2,3,4-tetrahydroisoquinolin-4-yl]benzene]sulfonamido)-2-methylpropoxy]ethoxy]ethyl)carbamoyl]amino]butyl)urea]	C (>70%)	< 100	C (>70%)	100 to 1000	
C=CCc1ccccc1OCC(O)CNC(C)C (stereo not shown) [alprenolol]					96
CC(=O)Nc1ccc(OCC(O)CNC(C)C)cc1 (stereo not shown) [practolol]					95
CCN1CCCC1CNC(=O)c1cc(S(N)(=O)=O)ccc1OC (stereo not shown) [sulpiride]					36
OC[C@H]1O[C@H](OC[C@H]2O[C@H](O[C@]3(CO)O[C@H](CO)[C@@H](O)[C@@H]3O)[C@H](O)[C@@H](O)[C@@H]2O)[C@H](O)[C@@H](O)[C@H]1O [raffinose]					0.3
OC[C@H]1O[C@@H](O[C@@H]2[C@@H](CO)OC(O)(CO)[C@H]2O)[C@H](O)[C@@H](O)[C@H]1O (mixture of isomers) [lactulose]					0.6
NC[C@H]1CC[C@H](C(=O)O)CC1 [tranexamic acid]					55
O=C(O)c1cc(/N=N/c2ccc(O)c(C(=O)O)c2)ccc1O [olsalazine]					2.3
C=CCOc1ccccc1OCC(O)CNC(C)C (stereo not shown) [oxyprenolol]					97
